Results reported in patent US20250034170A1, “SMALL MOLECULE MODULATORS OF GLUCOCEREBROSIDASE ACTIVITY AND USES THEREOF” (Vanqua Bio, Inc., priority 2021, published 2025).
pEC50: −log10 of the molar value.

Molecular target: T1, GCase (Homo sapiens, UniProt P04062)
T1 construct: endogenous in cells; host or cells: HeLa cells
T1 sequence (P04062 40-536): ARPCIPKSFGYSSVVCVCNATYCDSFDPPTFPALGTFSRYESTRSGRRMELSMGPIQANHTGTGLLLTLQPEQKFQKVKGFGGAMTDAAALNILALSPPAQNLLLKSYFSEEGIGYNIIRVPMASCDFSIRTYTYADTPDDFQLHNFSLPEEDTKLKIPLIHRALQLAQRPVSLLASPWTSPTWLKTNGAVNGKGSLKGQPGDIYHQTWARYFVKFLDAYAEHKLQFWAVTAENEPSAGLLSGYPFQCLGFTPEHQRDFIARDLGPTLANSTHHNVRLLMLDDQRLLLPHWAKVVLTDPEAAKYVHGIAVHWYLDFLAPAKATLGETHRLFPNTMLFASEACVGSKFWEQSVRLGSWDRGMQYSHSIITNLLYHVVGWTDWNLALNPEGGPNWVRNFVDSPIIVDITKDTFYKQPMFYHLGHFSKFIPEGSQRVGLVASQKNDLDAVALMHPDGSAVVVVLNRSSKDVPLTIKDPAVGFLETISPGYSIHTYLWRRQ
Experiment: activation of GCase in a live cell PFB assay in HELA cells
Format: cell-based
Settings: EC50 given as range classes
Procedure: Exemplary compounds were evaluated for activation of GCase in a live cell PFB assay in HELA cells (essentially as described in Ysselstein et al., “LRRK2 kinase activity regulates lysosomal glucocerebrosidase in neurons derived from Parkinson's disease patients” Nature Communications (2019) 10:5570). […] EC50 ranges: A: <10 μM; B: >10-50 μM; C: >50-100 μM; D: >100 μM.

pEC50	Compound
4.30 to 5.00	Cn1c(N2CCC3(CN(c4cnc(C(F)(F)F)nc4)C3)C2)nc2c(cnn2CC(F)(F)F)c1=O [Cmpd 1018]
> 5.00	FC(F)(F)c1cc(N2CC3(CCN(c4cncc(-c5nnc(C(F)(F)F)s5)n4)C3)C2)ccn1 [Cmpd 1023]
4.00 to 4.30	FC(F)(F)c1cc(N2CC3(CCN(c4cncc(-c5nnc(C(F)(F)F)o5)n4)C3)C2)ccn1 [Cmpd 1024]
4.00 to 4.30	FC(F)(F)c1ncc(N2CC3(CCN(c4cncc(-c5nnc(C(F)(F)F)o5)n4)C3)C2)cn1 [Cmpd 1026]
4.30 to 5.00	FC(F)(F)c1cc(N2CC3(CCN(c4cncc(-c5nccs5)n4)C3)C2)ccn1 [Cmpd 1027]
> 5.00	CC(C)c1cnc(C(F)(F)F)cc1N1CC2(CCN(c3cnc4cnn(CC(F)F)c4n3)C2)C1 [Cmpd 1030]

Second part, the compound before the results:

Compound	pEC50
CCn1c(N2CCC3(CC2)CC(=O)N(c2ccnc(C(F)(F)F)c2)C3)nc2c(cnn2CC(F)F)c1=O [Cmpd 1019]	> 5.00
Cc1nn(CC(F)F)c2nc(N3CCC4(CC3)CC(=O)N(c3ccnc(C(F)(F)F)c3)C4)n(C)c(=O)c12 [Cmpd 1020]	> 5.00
COc1ncc(N2CCC3(CN(c4ccnc(C(F)(F)F)c4)C3)C2)nc1-c1nncs1 [Cmpd 1021]	4.30 to 5.00
COc1ncc(N2CCC3(CN(c4cnc(C(F)(F)F)nc4)C3)C2)nc1-c1nncs1 [Cmpd 1022]	< 4.00
FC(F)(F)c1ncc(N2CC3(CCN(c4cncc(-c5nnc(C(F)(F)F)s5)n4)C3)C2)cn1 [Cmpd 1025]	> 5.00
FC(F)(F)c1cc(N2CC3(CCN(c4cncc(-c5ncc(C(F)(F)F)s5)n4)C3)C2)ccn1 [Cmpd 1028]	4.30 to 5.00
FC(F)(F)c1cc(N2CC3(CCN(c4cncc(-c5cncs5)n4)C3)C2)ccn1 [Cmpd 1029]	> 5.00
CCCc1cnc(C(F)(F)F)cc1N1CC2(CCN(c3cnc4cnn(CC(F)F)c4n3)C2)C1 [Cmpd 1031]	> 5.00
CCc1cnc(C(F)(F)F)cc1N1CC2(CCN(c3cnc4cnn(CC(F)F)c4n3)C2)C1 [Cmpd 1032]	> 5.00
FC(F)(F)CCn1ncc2ncc(N3CCC4(CN(c5ccnc(C(F)(F)F)c5)C4)C3)nc21 [Cmpd 1033]	> 5.00

Same assay, conditions: activation of GCase, EC50 ranges

pEC50	Compound
> 5.00	Cc1ncc(-c2nncs2)nc1N1CCC2(CN(c3ccnc(C(F)(F)F)c3)C2)C1 [Cmpd 1037]
4.30 to 5.00	Cc1ncc(-c2nncs2)nc1N1CCC2(CN(c3cnc(C(F)(F)F)nc3)C2)C1 [Cmpd 1038]
< 4.00	Cc1sc(N2CC3(CCN(c4cnc5cnn(CC(F)F)c5n4)C3)C2)nc1C(F)(F)F [Cmpd 1047]
> 5.00	Cc1nnc(-c2cncc(N3CCC4(CN(c5ccnc(C(F)(F)F)c5)C4)C3)n2)s1 [Cmpd 1052]
> 5.00	Cn1c(N2CCC3(CCN(c4ccc(C(F)(F)F)nc4)C3)CC2)nc2c(cnn2CC(F)F)c1=O [Cmpd 1054]
4.30 to 5.00	Cn1c(N2CCC3(CCN(c4nccc(C(F)(F)F)n4)C3)CC2)nc2c(cnn2C2COC2)c1=O [Cmpd 1057]
4.30 to 5.00	FC(F)c1nnc(-c2cncc(N3CCC4(CN(c5ccnc(C(F)(F)F)c5)C4)C3)n2)s1 [Cmpd 1062]
4.30 to 5.00	Cc1nc(N2CC3(CCN(c4cnc5cnn(C6COC6)c5n4)C3)C2)cc(C(F)(F)F)n1 [Cmpd 1063]
4.30 to 5.00	CCc1nn(CC(F)F)c2nc(N3CCC4(CN(c5cc(C(F)(F)F)nc(C)n5)C4)C3)ncc12 [Cmpd 1066]
4.30 to 5.00	CCn1c(=O)n(CC(F)F)c2ncc(N3CCC4(CN(c5cc(C(F)(F)F)nc(C)n5)C4)C3)nc21 [Cmpd 1075]
> 5.00	Cc1nc(N2CC3(CCN(c4cnc5c(n4)n(CC(F)F)c(=O)n5C)C3)C2)cc(C(F)(F)F)n1 [Cmpd 1077]
> 5.00	Cc1nc(N2CC3(CCN(c4cnc5c(n4)n(C)c(=O)n5CC(F)F)C3)C2)cc(C(F)(F)F)n1 [Cmpd 1078]
4.30 to 5.00	Cc1nc(N2CC[C@]3(CCN(c4ncc5c(C)nn(C6COC6)c5n4)C3)C2)cc(C(F)(F)F)n1 [Cmpd 1079]
4.30 to 5.00	Cc1nc(N2CC[C@@]3(CCN(c4ncc5c(C)nn(C6COC6)c5n4)C3)C2)cc(C(F)(F)F)n1 [Cmpd 1080]
> 5.00	CCn1c(=O)n(CC(F)F)c2nc(N3CCC4(CN(c5cc(C(F)(F)F)nc(C)n5)C4)C3)ncc21 [Cmpd 1081]
> 5.00	Cc1nc(N2CC3(CCN(c4ncc5c(n4)n(CC(F)F)c(=O)n5C)C3)C2)cc(C(F)(F)F)n1 [Cmpd 1082]
4.30 to 5.00	CCn1c(=O)n(CC(F)F)c2nc(N3CCC4(C3)CN(c3cnc(C)nc3C(F)(F)F)C4)ncc21 [Cmpd 1083]

The next lines start with the compound.

Compound	pEC50
FC(F)(F)OCCn1ncc2ncc(N3CCC4(CN(c5ccnc(C(F)(F)F)c5)C4)C3)nc21 [Cmpd 1034]	> 5.00
Cc1nc2cnn(CC(F)F)c2nc1N1CCC2(CN(c3ccnc(C(F)(F)F)c3)C2)C1 [Cmpd 1035]	> 5.00
Cc1nc2cnn(CC(F)F)c2nc1N1CCC2(CN(c3cnc(C(F)(F)F)nc3)C2)C1 [Cmpd 1036]	< 4.00
Cc1cnc(N2CC3(CCN(c4cnc5cnn(CC(F)F)c5n4)C3)C2)cn1 [Cmpd 1039]	4.30 to 5.00
Cc1cc(N2CC3(CCN(c4cnc5cnn(C6COC6)c5n4)C3)C2)cc(C(F)(F)F)n1 [Cmpd 1040]	4.30 to 5.00
Cc1c(N2CC3(CCN(c4cnc5cnn(C6COC6)c5n4)C3)C2)ccnc1C(F)(F)F [Cmpd 1041]	< 4.00
Cc1cnc(C(F)(F)F)cc1N1CC2(CCN(c3cnc4cnn(C5COC5)c4n3)C2)C1 [Cmpd 1042]	< 4.00
CCn1c(-c2ccccc2)nc2ncc(N3CCC4(CN(c5ccnc(C(F)(F)F)c5)C4)C3)nc21 [Cmpd 1043]	> 5.00
CCn1c(-c2cncc(F)c2)nc2ncc(N3CCC4(CN(c5ccnc(C(F)(F)F)c5)C4)C3)nc21 [Cmpd 1044]	> 5.00
CCn1c(-c2cncc(F)c2)nc2nc(N3CCC4(CN(c5ccnc(C(F)(F)F)c5)C4)C3)cnc21 [Cmpd 1045]	4.00 to 4.30
FC(F)Cn1ncc2ncc(N3CCC4(C3)CN(c3nnc(C(F)(F)F)s3)C4)nc21 [Cmpd 1046]	4.30 to 5.00
CC[C@H]1N(c2cnc(C(F)(F)F)nc2)C[C@]12CCN(c1cnc3cnn(CC(F)F)c3n1)C2 [Cmpd 1048]	4.30 to 5.00
CC[C@@H]1N(c2cnc(C(F)(F)F)nc2)C[C@]12CCN(c1cnc3cnn(CC(F)F)c3n1)C2 [Cmpd 1049]	4.30 to 5.00
CCn1c(N2CCC3(CN(c4nnc(C(F)(F)F)s4)C3)C2)nc2c(cnn2CC(F)F)c1=O [Cmpd 1050]	4.30 to 5.00
FC(F)Cn1ncc2cnc(N3CCC4(C3)CN(c3nnc(C(F)(F)F)s3)C4)nc21 [Cmpd 1051]	4.00 to 4.30
Cc1nc(N2CCC3(CCN(c4nc5c(cnn5CC(F)F)c(=O)n4C)CC3)C2)cc(C(F)(F)F)n1 [Cmpd 1053]	> 5.00
FC(F)(F)c1cc(N2CCC3(CCN(c4cnc5cnn(C6COC6)c5n4)CC3)C2)cnn1 [Cmpd 1055]	> 5.00
Cc1nc(C(F)(F)F)ncc1N1CCC2(CCN(c3cnc4cnn(C5COC5)c4n3)CC2)C1 [Cmpd 1056]	4.30 to 5.00

Compound	pEC50
Cn1c(N2CCC3(CCN(c4ncc(C(F)(F)F)cn4)C3)CC2)nc2c(cnn2C2COC2)c1=O [Cmpd 1058]	4.30 to 5.00
Cn1c(N2CCC3(CCN(c4ccnc(C(F)(F)F)c4)C3)CC2)nc2c(cnn2C2COC2)c1=O [Cmpd 1059]	> 5.00
Cn1c(N2CCC3(CCN(c4ccnc(C(F)(F)F)n4)C3)CC2)nc2c(cnn2C2COC2)c1=O [Cmpd 1060]	> 5.00
O=C([C@H]1CCn2c1nccc2=O)N1CCC2(C1)CN(c1ccnc(C(F)(F)F)c1)C2 [Cmpd 1061]	4.00 to 4.30
CCc1nn(CC(F)F)c2nc(N3CCC4(CN(c5cc(C(F)(F)F)nc(C)n5)C4)C3)cnc12 [Cmpd 1064]	4.30 to 5.00
CCc1nn(C2COC2)c2nc(N3CCC4(CN(c5cc(C(F)(F)F)nc(C)n5)C4)C3)cnc12 [Cmpd 1065]	4.30 to 5.00
CCc1nn(C2COC2)c2nc(N3CCC4(CN(c5cc(C(F)(F)F)nc(C)n5)C4)C3)ncc12 [Cmpd 1067]	> 5.00
CCc1nn(CC(F)F)c2nc(N3CCC4(CN(c5ccnc(C(F)(F)F)c5)C4)C3)cnc12 [Cmpd 1068]	4.30 to 5.00
CCc1nn(C2COC2)c2nc(N3CCC4(CN(c5ccnc(C(F)(F)F)c5)C4)C3)cnc12 [Cmpd 1069]	4.30 to 5.00
CCc1nn(C2COC2)c2nc(N3CCC4(CN(c5ccnc(C(F)(F)F)c5)C4)C3)ncc12 [Cmpd 1070]	> 5.00
CCc1nn(CC(F)F)c2nc(N3CCC4(CN(c5ccnc(C(F)(F)F)c5)C4)C3)ncc12 [Cmpd 1071]	> 5.00
FC(F)Cn1ncc2cnc(N3CCC4(CN(c5ccnc(C(F)(F)F)c5)C4)C3)cc21 [Cmpd 1072]	4.30 to 5.00
FC(F)Cn1ncc2ccc(N3CCC4(CN(c5ccnc(C(F)(F)F)c5)C4)C3)nc21 [Cmpd 1073]	> 5.00
CCn1c(=O)n(CC(F)F)c2nc(N3CCC4(CN(c5cc(C(F)(F)F)nc(C)n5)C4)C3)cnc21 [Cmpd 1074]	> 5.00
Cc1cc(N2CC3(CCN(c4ncc5cnn(CC(C)(F)F)c5n4)C3)C2)nc(C(F)(F)F)n1 [Cmpd 1076]	4.30 to 5.00
Cc1nc(N2CC3(CCN(c4nc5c(cnn5CC(F)F)c(=O)n4C)C3)C2)cc(C(F)(F)F)n1 [Cmpd 1084]	> 5.00
CCn1c(=O)n(CC(F)F)c2nc(N3CCC4(CC3)CCN(c3cnc(C(F)(F)F)nc3C)C4)cnc21 [Cmpd 1085]	> 5.00
Cc1nc(C(F)(F)F)ncc1N1CCC2(CCN(c3nc4c(cnn4CC(F)F)c(=O)n3C)CC2)C1 [Cmpd 1086]	4.30 to 5.00
